In ChEMBL document CHEMBL4043159, “Structural evidence for the DPPH radical-scavenging mechanism of 2-O-α-d-glucopyranosyl-l-ascorbic acid” (Bioorg Med Chem, 2017):
Active and inactive are the calls of the source. No cut-off for these calls is given here.

Tests used:
Format in all cases: functional
[1] = Antioxidant activity assessed as DPPH free radical scavenging activity by measuring retention time of AA-2G-DPPH product at 20 uM incubated for 30 mins by HPLC method
[2] = Antioxidant activity assessed as DPPH free radical scavenging activity by measuring amount of compound consumed at 200 uM measured at 10 mins by HPLC
[3] = Antioxidant activity assessed as DPPH free radical scavenging activity by measuring AA-2G-DPPH adducts formation at 5 mM incubated for 10 to 30 mins by 1H NMR spectroscopy
[4] = Antioxidant activity assessed as DPPH free radical scavenging activity by measuring AA-2G-DPPH adducts formation at 200 uM measured within 10 mins by HPLC
[5] = Antioxidant activity assessed as DPPH free radical scavenging activity by measuring radical-scavenging activity factor (moles of radicals scavenged by each mol of antioxidant) at 20 uM measured at 15 mins by HPLC
[6] = Antioxidant activity assessed as DPPH free radical scavenging activity by measuring radical-scavenging activity factor (moles of radicals scavenged by each mol of antioxidant) at 20 uM measured at 30 mins by HPLC
[7] = Antioxidant activity assessed as DPPH free radical scavenging activity by measuring AA-2G-DPPH adducts level at 200 uM measured at 10 mins by HPLC
[8] = Antioxidant activity assessed as time duration for DPPH free radical scavenging activity at 20 uM by HPLC
[9] = Antioxidant activity assessed as DPPH free radical scavenging activity by measuring radical-scavenging activity factor (moles of radicals scavenged by each mol of antioxidant) at 20 uM measured at 120 mins by HPLC
[10] = Antioxidant activity assessed as DPPH free radical scavenging activity by measuring AA-2G-DPPH product formation at 0.25 to 0.75 mM incubated for 30 mins by HPLC method
[11] = Antioxidant activity assessed as DPPH free radical scavenging activity by measuring radical-scavenging activity factor (moles of radicals scavenged by each mol of antioxidant) at 20 uM measured at 10 mins by HPLC

| Structure (SMILES) | Retention time [1] | Activity [2] | Activity [3] | Activity [4] | scavenging factor [5] | scavenging factor [6] | Activity [7] | TIME [8] | scavenging factor [9] | Activity [10] | scavenging factor [11] | Activity [1] |
| --- | --- | --- | --- | --- | --- | --- | --- | --- | --- | --- | --- | --- |
| O=C1O[C@H]([C@@H](O)CO)C(O)=C1O[C@H]1O[C@H](CO)[C@@H](O)[C@H](O)[C@H]1O | 15 min | 190 µM | Active | Active | 1.7 mol/mol | 2.1 mol/mol | 190 µM | 2 h | 2.7 mol/mol | Dose-dependent effect | 1.5 mol/mol |  |
| O=C1O[C@H]([C@@H](O)CO)C(O)=C1O |  |  |  |  | 1.8 mol/mol | 1.9 mol/mol |  | < 0.0167 h | 1.9 mol/mol |  | 1.8 mol/mol | inactive |
